Key:
[1] = system: male S.D. rats injected with Substance P; test: Pharmacological Test 3: analgesic effect (Randall-Sellitto pain threshold after Substance P injection); format: in vivo, rat; settings: for analgesic effect (in words): conclusion from Table 15; for Recovery rate (%) of the pain threshold (highest recovery rate): oral, 5% gum arabic suspension 10 ml/kg, measurement point 60 minutes after Substance P injection
Method: Pharmacological Test 3 Test for Evaluating Analgesic Effect Using two groups (test group and control group) each consisting of 6-week-old male S.D. rats (7 rats in each group), the pain threshold of each rat's left hind paw was measured using an Analgesy-meter (product of Unicom) in accordance with the Randall-Sellitto method [Randall, L. O. and Sellitto, J. J., Arch. Int. Pharmacodyn., 111, 409–419 (1957)]. The value thus obtained was termed “pre-value”. One hour after the measurement of the pre-value, a 5% gum arabic suspension containing compound of the invention was orally administered to the rats of the test group in an amount of 10 ml/kg, whereas a 5% gum arabic suspension (not containing compound of the invention) was orally administered to the rats of the control group in an amount of 10 ml/kg. One hour after the oral administration, a physiological saline solution containing Substance P (25 ng/0.1 ml) was subcutaneously injected into the left hind paw of each rat. The pain threshold of each rat's left hind paw was measured in the same manner as above at predetermined time intervals after the Substance P injection. The measured value is termed the “post-value”. The recovery rate (%) of the pain threshold was calculated from the post-values and pre-values of the test group and control group, by means of the following formula: [formula]

[2] = system: streptozotocin (STZ) treated male S.D. rats; test: Pharmacological Test 1: therapeutic effect on diabetic neuropathy (Randall-Selitto pain threshold in STZ rats); format: in vivo, rat; settings: 30 mg/kg orally once a day, three hours after administration, left hind paw
Method: Pharmacological Test 1 Therapeutic Effect on Diabetic Neuropathy A model group was obtained by intravenously administering 50 mg/kg streptozotocin (STZ) dissolved in 0.01 M citrate buffer solution to 8-week-old male S.D. rats. After administration, five rats were housed per cage and kept therein. Three weeks after administration of STZ, the pain threshold of each rat's left hind paw to pressure stimulation was measured by Randall-Selitto Test [Randall, L. O. and Selitto, J. J. Arch. Int. Pharmacodyn., 111, 409–419 (1957)]. The value thus obtained was termed “pre-value”. […] A 5% gum arabic solution containing the test compound was orally administered as specimen to experimental animals in one of the above three groups (test group) in such a manner that each dosage of the test compound was 30 mg/kg and the amount of administered solution was 10 ml/kg, once a day for 21 continuous days. […] On the 14th and 21st days, the pain threshold of the left hind paw of the experiment animals was measured three hours after administration. The recovery rate (%) of the pain threshold was calculated by means of the following formula: Recovery rate (%)=[(T−C)/(N−C)]×100 (wherein T is the test group average value, C is the control group average value and N is the non-treated group average value.)

[3] = system: excised ilea of Hartley male guinea pigs; test: Pharmacological Test 2: adenosine enhancing effect on electrically stimulated contraction of excised ileum; settings: guinea pig ileum, n=2
Method: Adenosine Enhancing Effect
The compounds obtained in Examples 1 and 34 were used as test compounds in the form of a dimethyl sulfoxide solution.
As experimental animals, Hartley male guinea pigs (purchased from CHARLES RIVER JAPAN, INC.) (that were in good general condition at least 6 days after the purchase) were used. The animals were housed in a cage under controlled conditions of temperature of 20 to 26° C. (actually measured value: 22.1 to 22.9° C.), humidity of 40–70% (actually measured value: 50.3–51.5%) and lighting of 12 hours/day (7:00–19:00). The animals had free access to food (solid diet, product name of Labo G Standard, product of Nosan Corporation) and tap water.
The following experiments were conducted using the excised ilea (n=2) of experimental animals (body weight at the time of testing: 316–388 g). The experimental animals were bled and slaughtered. […] The contraction reaction of samples was recorded on an ink-writing recorder (GRAPHTEC, SR-6211, SR-6221) through an isotonic transducer (product of NIHON KOHDEN CORPORATION, TD-112S). […]
That is, the nutrient solution was exchanged, electronic stimulation was applied to the samples 15 minutes after exchange of the nutrient solution, and, when contraction stabilized, adenosine was cumulatively added from 10^−6 M to 10^−5 M. The adenosine dose-response curve was then obtained, and the ED50 value was calculated. […]

Structure (SMILES)	melting point	other results
COc1cc(OCC[S+](C)c2c([O-])c3cccnc3n(C)c2=O)cc(OC)c1OC (centres unmarked) [Example 36, 1-methyl-3-[methyl-2-(3,4,5-trimethoxyphenoxy)ethylsulfonium]-1,8-naphthyridine-2(1H)-one-4-olate]		analgesic effect (in words) [1]: excellent analgesic effect; Recovery rate (%) of the pain threshold (highest recovery rate) [1]: 111%
Cc1cccc(C)c1COCC[S+](C)c1c([O-])c2cccnc2n(Cc2ccccc2)c1=O (centres unmarked) [Example 4]	161 to 163 °C	
COc1cc(OCCC[S+](C)c2c([O-])c3cccnc3n(Cc3ccccc3)c2=O)cc(OC)c1OC (centres unmarked) [Example 1, 1-benzyl-3-[methyl-3-(3,4,5-trimethoxyphenoxy)propylsulfonium]-1,8-naphthyridine-2(1H)-one-4-olate]	147 to 149 °C	Recovery rate (%) of the pain threshold, 14th day ([2]; 14th day): 46.2%; Recovery rate (%) of the pain threshold, 21st day ([2]; 21st day): 56.7%; analgesic effect (in words) [1]: excellent analgesic effect; Recovery rate (%) of the pain threshold (highest recovery rate) [1]: 46%; Adenosine enhancing effect (ED50(−)/ED50(+)) ([3]; test compound concentration 10^−6 M): 11.11
COc1cc(COCC[S+](C)c2c([O-])c3cccnc3n(Cc3ccccc3)c2=O)cc(OC)c1O (centres unmarked) [Example 10]	121 to 123 °C	
COc1cc(COCC[S+](C)c2c([O-])c3cccnc3n(Cc3ccccc3)c2=O)cc2c1OCO2 (centres unmarked) [Example 8]	84 to 87 °C	
C[S+](CCOCc1ccc2c(c1)OCO2)c1c([O-])c2cccnc2n(Cc2ccccc2)c1=O (centres unmarked) [Example 7]	124 to 126 °C	
C[S+](CCOCc1cc(C(F)(F)F)cc(C(F)(F)F)c1)c1c([O-])c2cccnc2n(Cc2ccccc2)c1=O (centres unmarked) [Example 6]	157 to 159 °C	
C[S+](CCOCc1ccccc1)c1c([O-])c2cccnc2n(Cc2ccccc2)c1=O (centres unmarked) [Example 2]	130 to 132 °C	
C[S+](CCCOc1ccc(Cl)cc1)c1c([O-])c2cccnc2n(Cc2ccccc2)c1=O (centres unmarked) [Example 3]	145 to 147 °C	
CC[S+](CCCOc1cc(OC)c(OC)c(OC)c1)c1c([O-])c2cccnc2n(Cc2ccccc2)c1=O (centres unmarked) [Example 34, 1-benzyl-3-[ethyl-3-(3,4,5-trimethoxyphenoxy)propylsulfonium]-1,8-naphthyridine-2(1H)-one-4-olate]		Adenosine enhancing effect (ED50(−)/ED50(+)) ([3]; test compound concentration 10^−5 M): 14.00
COc1cc(Cn2c(=O)c([S+](C)CCOc3cc(OC)c(OC)c(OC)c3)c([O-])c3cccnc32)cc(OC)c1OC (centres unmarked) [Example 15, 1-(3,4,5-trimethoxybenzyl)-3-[methyl-2-(3,4,5-trimethoxyphenoxy)ethylsulfonium]-1,8-naphthyridine-2(1H)-one-4-olate]		analgesic effect (in words) [1]: excellent analgesic effect; Recovery rate (%) of the pain threshold (highest recovery rate) [1]: 39%
Cc1cc(C)c(COCC[S+](C)c2c([O-])c3cccnc3n(Cc3ccccc3)c2=O)c(C)c1 (centres unmarked) [Example 5]	165 to 167 °C	
COc1cc(COCC[S+](C)c2c([O-])c3cccnc3n(Cc3ccccc3)c2=O)cc(O)c1OC (centres unmarked) [Example 9]	132 to 134 °C	

From patent US7071187B2, “Naphthyridine derivatives” (Otsuka Pharmaceutical Factory, Inc., priority 2001, dated 2006)
